{"source": "patent US20250325565A1", "about": "“ERAVACYCLINE FOR TREATING CANCER” (B. G. NEGEV TECHNOLOGIES AND APPLICATIONS LTD., priority 2022, published 2025)", "type_in_all_cases": "cell-based, human", "key": {"HT-29 cells": {"system": "HT-29 cells", "experiment": "XTT cell proliferation assay, HT-29", "conditions": "HT-29, 72 h, 1-50 μM", "experimental": "(§1) Human PDAC (AsPC-1, BxPC-3, Panc-1 scr, Panc-1 p53-R273H knock-out (KO) hTERT-HPNE), breast (MCF-7), lung (A549), and colon (HT-29) cancer cell lines were purchased from the American Type Culture Collection (ATCC). The MCF-7, A549, Panc-1 scr, Panc-1 p53 KO and HT-29 cell lines were grown in Dulbecco's Modified Eagle Medium (DMEM; Biological Industries, Beit HaEmek (BI), Israel), and the BxPC-3 and AsPC-1 cell lines were cultured in Roswell Park Memorial Institute-1640 (RPMI-1640; BI, Israel) medium. All media was supplemented with 10% fetal bovine serum (FBS), 200 μM L-glutamine (BI), and 1% penicillin-streptomycin (BI). Cells were cultured at 37° C. in a 5% CO2 humidified incubator.\n(§2) Eravacycline dihydrochloride (MedChem Express (MCE)) was dissolved in […] (DDW). Tigecycline (MCE) and omadacycline (MCE) were dissolved in dimethyl sulphoxide (DMSO). All drugs were prepared as 100 mM stock solutions. All cell lines were treated with DMSO as a control (less than 0.1%) or tigecycline, omadacycline, or eravacycline (at the indicated concentrations) for 72 hours. Cell viability and proliferation were determined using the XTT Cell Proliferation Assay Kit (Promega).\n(§3) The XTT Cell Proliferation Assay Kit was used to determine cell viability and proliferation. Cells were seeded in 96-well plates at a density of 4,000 cells per well and allowed to attach overnight in a 5% CO2 incubator at 37° C. […] After shaking the plate gently to distribute the dye in the wells, the absorbance was measured with a spectrophotometer (Bio-RadiMark Microplate Absorbance reader) at a wavelength of 450 nm and a reference wavelength of 655 nm.\n(§4) To evaluate the half maximal inhibitory concentration (IC50) of tetracycline derivatives on five different cell lines (MCF-7, A549, HT-29, BxPC-3, and AsPC-1), the cells were seeded and allowed to attach overnight. […] Inhibition of cell proliferation was determined using the XTT Cell Proliferation Assay Kit. […]"}, "MCF-7 cells": {"system": "MCF-7 cells", "experiment": "XTT cell proliferation assay, MCF-7", "conditions": "MCF-7, 72 h, 1-50 μM", "experimental": "as §1, §2, §3, §4"}, "BxPC-3 cells [1]": {"system": "BxPC-3 cells", "experiment": "Annexin V-FITC/PI apoptosis assay by flow cytometry", "conditions": "72 h", "experimental": "Cells were cultured in 6-well plates containing different concentrations of eravacycline, gemcitabine, or doxorubicin (medium alone was used as a control) for 72 h. Afterward, cells were collected by trypsinization for flow cytometry analysis. Cells were resuspended in 100 μl binding buffer, then stained with 5 μl propidium iodide (PI) and 5 μl Annexin V-FITC (Annexin V-FITC Apoptosis Detection Kit with PI-BioLegend) at room temperature for 20 min in the dark. Finally, the cells were collected and analyzed by FACS (Sony SP6800 Spectral cell analyzer), and the data was analyzed using SP6800 spectral analyzer software.\nTo examine eravacycline's effect on cell growth inhibition and the mechanism underlying this, the induction of apoptosis activated by eravacycline treatment in BxPC-3 cells was investigated by performing an Annexin V-FITC (V-fluorescein isothiocyanate) apoptosis assay. The effects of the treatment of BxPC-3 cells with increasing concentrations of eravacycline was evaluated after 72 h. A positive control of 1 μM of doxorubicin was evaluated at the same time point."}, "p53 (mutated in BxPC-3)": {"system": "p53 (mutated in BxPC-3)", "experiment": "Western blot of p53 protein expression in BxPC-3 cells", "conditions": "BxPC-3, 72 h, increasing concentrations"}, "AsPC-1 cells": {"system": "AsPC-1 cells", "experiment": "XTT cell proliferation assay, AsPC-1", "conditions": "for decrease in cell growth: 72 h", "experimental": "as §1, §2\nThe XTT Cell Proliferation Assay Kit was used to determine cell viability and proliferation. Cells were seeded in 96-well plates at a density of 4,000 cells per well and allowed to attach overnight in a 5% CO2 incubator at 37° C. After overnight incubation, cells were treated with culture medium or in a medium containing tigecycline, omadacycline, or eravacycline at different concentrations (1, 2, 5, 10, 25, and 50 μM) for the indicated time period. Then, 50 μl XTT reaction solution (0.1 ml activation solution+5 ml XTT reagent solution) was added to each well, and the plate was incubated at 37° C. for two hours. After shaking the plate gently to distribute the dye in the wells, the absorbance was measured with a spectrophotometer (Bio-RadiMark Microplate Absorbance reader) at a wavelength of 450 nm and a reference wavelength of 655 nm.\nTo evaluate the half maximal inhibitory concentration (IC50) of tetracycline derivatives on five different cell lines (MCF-7, A549, HT-29, BxPC-3, and AsPC-1), the cells were seeded and allowed to attach overnight. All cells were washed with phosphate buffered saline (PBS) and then cultured in fresh media containing the drugs tigecycline, omadacycline, or eravacycline at an increasing concentration (0-50 μM) for 72 h. Inhibition of cell proliferation was determined using the XTT Cell Proliferation Assay Kit.\nTo investigate the effect of tetracycline derivatives on cell proliferation in human breast, lung, colon, and PDAC cells, the inventors treated all cell lines (MCF-7, A549, HT-29, BxPC-3, and AsPC-1) with different concentrations of tigecycline, omadacycline, and eravacycline (1, 2, 5, 10, 25, and 50 μM), with medium used as a control, for 72 h. Then, an XTT assay was performed to determine the growth inhibition rate."}, "BxPC-3 cells [2]": {"system": "BxPC-3 cells", "experiment": "Scratch wound healing (cell migration) assay", "conditions": "BxPC-3, 10 μM, 0, 24, 48 and 72 hours", "experimental": "BxPC-3 cells were cultured in six well plates to full confluence; then the monolayer of the cells was scratched using a 200 μl pipette tip. Subsequently, PBS was used to wash and remove floating and damaged cells, and medium alone or medium containing 10 μM eravacycline was added to the cells for further culture. Cell migration over the denuded area was observed and captured at the indicated times with a Nikon ECLIPSE Ts2 fluorescence microscope, equipped with DS-Fi3 camera. The wound closure rates were also measured at the indicated time points.\nAs one of the most malignant types of digestive tract cancer cells, PDAC cells have powerful migration and invasiveness capabilities. Therefore, the effect of eravacycline on cell migration abilities was investigated."}}}
{"molecule": "CN(C)[C@@H]1C(O)=C(C(N)=O)C(=O)[C@@]2(O)C(O)=C3C(=O)c4c(O)c(NC(=O)CN5CCCC5)cc(F)c4C[C@H]3C[C@@H]12", "note": "[eravacycline, (4S,4aS,5aR,12aS)-4-(Dimethylamino)-7-fluoro-3,10,12,12a-tetrahydroxy-1,11-dioxo-9-[2-(pyrrolidin-1-yl)acetamido]-1,4,4a,5,5a,6,11,12a-octahydrotetracene-2-carboxamide]", "values": [{"measurement": "effect on cell survival / proliferation (in words)", "setting": "HT-29 cells", "result": "No significant effect"}, {"measurement": "effect on cell survival / proliferation (in words)", "setting": "MCF-7 cells", "result": "No significant effect"}, {"measurement": "increase in the number of apoptotic cells", "setting": "BxPC-3 cells [1]; BxPC-3, 10 μM", "result": "three-fold"}, {"measurement": "apoptosis", "setting": "BxPC-3 cells [1]; BxPC-3, 25 μM", "result": "~70", "unit": "%"}, {"measurement": "p53 protein expression vs control", "setting": "p53 (mutated in BxPC-3)", "result": "significantly reduced"}, {"measurement": "decrease in cell growth", "setting": "AsPC-1 cells; AsPC-1, 25 μM", "result": 75, "unit": "%"}, {"measurement": "decrease in cell growth", "setting": "AsPC-1 cells; AsPC-1, 50 μM", "result": 89, "unit": "%"}, {"measurement": "suppression of proliferation, up to", "setting": "AsPC-1 cells; AsPC-1, 72 h, concentration-dependent, 1-50 μM", "result": "90-93%"}, {"measurement": "IC50", "setting": "AsPC-1 cells; Homo sapiens, ASPC1, AsPC-1, 72 h, XTT, read-out: IC50, inhibition of cell proliferation", "result": 7.07, "unit": "µM"}, {"measurement": "migration rate to wound vs control", "setting": "BxPC-3 cells [2]", "result": "significantly lower migration rate"}]}
